The record followed here is patent US8518715B2, “Bifunctional polyazamacrocyclic chelating agents” (Nordion (Canada) Inc., priority 2006, dated 2013).

Some results are limits rather than exact numbers.

Holding throughout (type): physicochemical
The nature of data set [1]: Kinetics of complexation of polyazamacrocyclic ligand with 90Y3+. As to conditions: ^90Y^3+; for initial rate / kinetics of complexation (in words): ligand:metal 100:1, room temperature; for percent complexation of metal ion (in words): ligand:metal 100:1. The protocol: (§1) A polyazamacrocyclic ligand ((L)-p-NO2-Bz-PCTA; (D)-p-NO2-Bz-PCTA; (L)-p-NCS-Bz-PCTA; (±)-p-NO2-Bz-DOTA, (±)-NPCTA, (±)-OXO and (L)-p-NO2-Bz-OXO) was combined with a metal ion (^90Y^3+, ^111In^3+, ^177Lu^3+) at room temperature in buffer at a molar ratio of the ligand to the metal ion of 100:1 for kinetic studies, 200:1 for stability studies or at values ranging from 2:1 to 200:1 for the molar ratio studies.
(§2) Complexation studies involving ^90Y^3+ and ^111In^3+ were conducted with 50-100 mM sodium acetate buffer, pH 5.0-7.0, while complexation studies involving ^177Lu^3+ were performed with 50 mM-100 mM sodium acetate buffer, pH 4-5.
(§3) 1 μL samples were taken at 10 minute intervals for kinetic studies, after 60 minutes in experiments studying the effect of the value of [ligand]/[metal ion] on the % complexation of the ligand, and at spaced intervals of 1-3 days for experiments studying the stability of complexes formed using the ligand of the present invention. […] The silica gel paper is cut in half and each half is measured in a gamma well counter. […] Each result shown in FIGS. 4-9 is the average of three separate trials.

The nature of data set [2]: Kinetics of complexation of polyazamacrocyclic ligand with 111In3+. As to conditions: ^111In^3+; for initial rate / kinetics of complexation (in words): ligand:metal 100:1, room temperature. On the procedure:
as §1, §2, §3

Data set [3] in a line: Kinetics of complexation of polyazamacrocyclic ligand with 177Lu3+. As to conditions: ^177Lu^3+; for time after which the maximum percent of complexation was observed / percent complexation of metal ion (in words): ligand:metal 100:1; for initial rate / kinetics of complexation (in words): ligand:metal 100:1, room temperature; for percent complexation after 10 minutes: ligand:metal 100:1, 10 minutes. On the procedure:
as §1, §2, §3

Data set [4] can be described thus: Effect of [ligand]/[90Y3+] on the percent complexation. The protocol: as §1, §2, §3
Data set [5] can be described thus: Effect of [ligand]/[111In3+] on the percent complexation. The protocol: as §1, §2, §3
The nature of data set [6]: Effect of [ligand]/[177Lu3+] on the percent complexation. On the procedure:
as §1, §2, §3

[7] abbreviates: molar ratio of ligand/^111In^3+ of 5:1, after 60 minutes.

As for `COc1ccc([N+](=O)[O-])cc1C(C(=O)O)N1CCN(CC(=O)O)Cc2cccc(n2)CN(CC(=O)O)CC1` (racemic) [(±)-NPCTA, 2,2′-(6-(carboxy(2-methoxy-5-nitrophenyl)methyl)-3,6,9,15-tetraazabicyclo[9.3.1]pentadeca-1(15),11,13-triene-3,9-diyl)diacetic acid], the “initial rate / kinetics of complexation (in words)” value (from here on “initial rate / kinetics”) in data set [1], in data set [2] and in data set [3] was “relatively slower” throughout. In data set [3], the “time after which the maximum percent of complexation was observed” value was 50 min. The percent complexation in data set [4] (molar ratio of ligand/^90Y^3+ of greater than 20:1, after 60 minutes) is under 90%; in data set [5] (setting [7]), about 76%; in data set [6] (molar ratio of ligand/^177Lu^3+ of greater than 20:1, after 60 minutes), under 95%.
Take `O=C(O)CN1CCOCCN(CC(=O)O)CCN(CC(=O)O)CC1` (racemic) [(±)-OXO, 2,2′,2″-(1-oxa-4,7,10-triazacyclododecane-4,7,10-triyl)triacetic acid]: the “percent complexation of metal ion (in words)” value in data set [1] and in data set [3] was “highest” throughout. Moreover, the “initial rate / kinetics” value in data set [2] is “fastest”. Also, the “percent complexation after 10 minutes” value in data set [3] is reported as about 95%.
In the case of `O=C(O)CN1CCOCCN(CC(=O)O)[C@@H](Cc2ccc([N+](=O)[O-])cc2)CN(CC(=O)O)CC1` [(L)-p-NO2-Bz-OXO, (S)-2,2′,2″-(5-(4-nitrobenzyl)-1-oxa-4,7,10-triazacyclododecane-4,7,10-triyl)triacetic acid], the “percent complexation of metal ion (in words)” value in data set [1] and in data set [3] was “highest” in each case. The “initial rate / kinetics” value in data set [2] and in data set [3] was “fastest” throughout.
As to `O=C(O)CN1CCN(CC(=O)O)C[C@@H](Cc2ccc([N+](=O)[O-])cc2)N(CC(=O)O)Cc2cccc(n2)C1` [(D)-p-NO2-Bz-PCTA, 2,2′,2″-((4R)-4-(4-nitrobenzyl)-3,6,9,15-tetraazabicyclo[9.3.1]pentadeca-1(15),11,13-triene-3,6,9-triyl)triacetic acid], in data set [3], the “percent complexation after 10 minutes” value is on record as about 91%. Further, the percent complexation in data set [4] (molar ratio of ligand/^90Y^3+ of 10:1, after 60 minutes) is recorded as about 95%; in data set [5] (molar ratio of ligand/^111In^3+ of 10:1, after 60 minutes), about 95%.
With `O=C(O)CN1CCN(CC(=O)O)C[C@H](Cc2ccc([N+](=O)[O-])cc2)N(CC(=O)O)Cc2cccc(n2)C1` [(L)-p-NO2-Bz-PCTA, 2,2′,2″-((4S)-4-(4-nitrobenzyl)-3,6,9,15-tetraazabicyclo[9.3.1]pentadeca-1(15),11,13-triene-3,6,9-triyl)triacetic acid], the “percent complexation of metal ion (in words)” value in data set [1] and in data set [3] was “highest” throughout. For the same compound, the “percent complexation after 10 minutes” value is on record as 95% in data set [1] (ligand:metal 100:1, 10 minutes) and about 95% in data set [2] (ligand:metal 100:1, 10 minutes). Moreover, the “initial rate / kinetics” value in data set [1] and in data set [3] was “fastest” in each case. The percent complexation in data set [6] (molar ratio of ligand/^177Lu^3+ of 5:1, after 60 minutes) is reported as about 95%.
On to `O=C(O)CN1CCN(CC(=O)O)CCN(CC(=O)O)C(Cc2ccc([N+](=O)[O-])cc2)CN(CC(=O)O)CC1` (racemic) [(±)-p-NO2-Bz-DOTA, 2,2′,2″,2′″-(2-(4-nitrobenzyl)-1,4,7,10-tetraazacyclododecane-1,4,7,10-tetrayl)tetraacetic acid], for which, in data set [1], the “percent complexation of metal ion (in words)” value is listed as “highest”. Moreover, the “maximum values of complexation after 40 minutes” value in data set [2] (ligand:metal 100:1, after 40 minutes) is recorded as about 89%. In addition, in data set [3], the “percent complexation of metal ion (in words)” value is given as “highest”, the “time after which the maximum percent of complexation was observed” value is 40 min and the “percent complexation after 10 minutes” value is on record as about 95%. For the same compound, the percent complexation in data set [5] (setting [7]) is about 94%. For the same compound, the percent complexation in data set [5] (molar ratio of ligand/^111In^3+ of greater than 20:1, after 60 minutes) is reported as at most 95%.
